In BindingDB's records for doi:10.1016/j.bmc.2019.01.024 (2019):

Key:
[1] = Inhibition of mouse GAT3 expressed in HEK293 cells assessed as reduction in [3H]GABA uptake preincubated for 25 mins followed by [3H]GABA addition and measured after 4 mins by microbeta liquid scintillation counting method
[2] = Inhibition of mouse GAT2 expressed in HEK293 cells assessed as reduction in [3H]GABA uptake preincubated for 25 mins followed by [3H]GABA addition and measured after 10 mins by microbeta liquid scintillation counting method
[3] = biological target: T1, Sodium- and chloride-dependent GABA transporter 2 (Mus musculus, UniProt P31649); test: Inhibition of mouse GAT2 expressed in HEK293 cells assessed as reduction in [3H]GABA uptake preincubated for 25 mins followed by [3H]GABA addition and measured after 10 mins by microbeta liquid scintillation counting method
T1 sequence (P31649 whole entry): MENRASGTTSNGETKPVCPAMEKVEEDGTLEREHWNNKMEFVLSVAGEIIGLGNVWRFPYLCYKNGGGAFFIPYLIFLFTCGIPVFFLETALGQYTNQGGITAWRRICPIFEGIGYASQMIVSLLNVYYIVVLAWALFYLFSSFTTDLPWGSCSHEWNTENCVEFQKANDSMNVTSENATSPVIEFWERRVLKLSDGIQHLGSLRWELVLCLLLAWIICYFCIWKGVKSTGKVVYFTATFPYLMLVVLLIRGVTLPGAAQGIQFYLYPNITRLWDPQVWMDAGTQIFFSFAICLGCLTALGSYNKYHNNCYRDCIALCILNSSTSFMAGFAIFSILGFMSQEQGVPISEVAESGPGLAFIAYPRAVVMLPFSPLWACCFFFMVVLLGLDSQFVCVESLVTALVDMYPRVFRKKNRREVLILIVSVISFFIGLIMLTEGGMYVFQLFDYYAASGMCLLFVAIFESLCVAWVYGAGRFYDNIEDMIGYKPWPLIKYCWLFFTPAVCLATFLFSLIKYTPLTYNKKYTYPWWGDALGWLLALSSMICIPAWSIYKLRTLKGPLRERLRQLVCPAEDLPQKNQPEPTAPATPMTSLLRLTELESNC

| SMILES | IC50 [1] [µM] | IC50 [2] [µM] | IC50 [3] [µM] |
| --- | --- | --- | --- |
| COc1ccc(C(/C=C\CN2CCCC(C(=O)O)C2)(c2ccc(OC)cc2)c2ccc3c(c2)OCO3)cc1 (stereo unspecified) | 45.7 | 61.7 | – |
| COc1ccc(C(/C=C\CN2CCCC(C(=O)O)C2)(Cc2ccccc2)c2ccc(OC)cc2)cc1 (stereo unspecified) | – | – | 30.2 |
| O=C(O)C1CCCN(CC/C=C\C(c2ccccc2)(c2ccccc2)c2ccccc2)C1 (stereo unspecified) | – | 55 | – |

The next lines start with the values.

| IC50 [1] [µM] | IC50 [2] [µM] | IC50 [3] [µM] | SMILES |
| --- | --- | --- | --- |
| 85.1 | – | – | COc1ccc(C(C/C=C\CN2CCCC(C(=O)O)C2)(c2ccc(OC)cc2)c2ccc(OC)cc2)cc1 (stereo unspecified) |
| – | 89.1 | – | COc1ccc(C(/C=C\CN2CCCC(C(=O)O)C2)(c2ccc(OC)cc2)c2ccsc2)cc1 (stereo unspecified) |
